Literature values as cited in patent publication US8067011B2, “Compositions and methods for treating B-cell malignancies” (Chimeros, Inc., priority 2006, dated 2011).

Tests used:
[1] = test system: relapsed or refractory, low-grade or follicular, CD20-positive, B-cell non-Hodgkin's lymphoma; settings: low-grade or follicular NHL
[2] = test system: diffuse large B-cell, CD20-positive, non-Hodgkin's lymphoma; settings: added to CHOP or other anthracycline-based chemotherapy, first-line DLBCL

Question: With “Rituxan: naked antibody that specifically binds to CD20, used for B cell-derived lymphomas and leukemias” as the substance, how does the “median duration of response, defined as progression free survival” value [1] read?
Answer: about 1 year

Question: And the response rate [1]?
Answer: about 50%

Question: And the “extension of progression free survival over chemotherapy alone” value [2]?
Answer: about 1.5 years
